This passage reports IC50 results from US20260250290A1 (BRISTOL-MYERS SQUIBB COMPANY, priority 2023, published 2026).

Molecules are shown by their SMILES. Where a name gives a salt, the structure may show the parent alone.

The first test deals with T1, full length SGK1 (Homo sapiens, UniProt O00141).
T1 construct: 125 μM full length SGK1 (Life Technologies Part #PR7358A); purchased Life Technologies PR7358A
T1 sequence (O00141 1-431): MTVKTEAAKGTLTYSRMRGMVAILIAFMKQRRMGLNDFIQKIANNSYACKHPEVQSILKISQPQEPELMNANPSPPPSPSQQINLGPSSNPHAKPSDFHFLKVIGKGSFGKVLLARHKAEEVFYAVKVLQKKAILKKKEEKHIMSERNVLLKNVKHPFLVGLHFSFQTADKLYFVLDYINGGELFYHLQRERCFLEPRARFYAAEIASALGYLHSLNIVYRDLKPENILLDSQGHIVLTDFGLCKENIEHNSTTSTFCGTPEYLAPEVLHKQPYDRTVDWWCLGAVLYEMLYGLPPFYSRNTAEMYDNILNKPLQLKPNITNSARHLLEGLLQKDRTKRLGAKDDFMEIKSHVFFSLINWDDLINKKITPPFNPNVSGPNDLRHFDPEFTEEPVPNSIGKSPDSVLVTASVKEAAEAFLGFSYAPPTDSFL
The test is described as follows: SGK1 inhibition Assay A (Caliper LabChip electrophoretic separation of fluorescent peptide substrate and phosphorylated product). In kind it is biochemical. Particulars: Assay A; 20 μM ATP, 40 min incubation; read-out: SGK1 IC50.
What is called IC50 is the concentration needed to halve the response being measured. Regarding `CC(=O)N1CC=C(c2cc(N3CCC[C@@H](NC(=O)c4sc(Cl)cc4OCC4CCNCC4)C3)c3c(N)ncnn23)C1` [Example 640, (R)-N-(1-(7-(1-acetyl-2,5-dihydro-1H-pyrrol-3-yl)-4-aminopyrrolo[2,1-f][1,2,4]triazin-5-y1)piperidin-3-y1)-5-chloro-3-(piperidin-4-ylmethoxy)thiophene~2-carboxamide], the IC50 amounted to 0.008 µM.
Same read-out and setting: the value for `NC(=O)c1ccc(-c2cc(N3CCC[C@@H](NC(=O)c4ccc(Cl)s4)C3)c3c(N)ncnn23)cc1F` [Example 139, (R)—N-(1-(4-amino-7-(4-carbamoyl-3-fluorophenyl)pyrrolo[2,1-f][1,2,4]triazin-5-yl)piperidin-3-yl)-5-chlorothiophene-2-carboxamide, TFA] was 0.003 µM; that for `N#Cc1ccc(-c2cc(N3CCC[C@@H](NC(=O)c4sc(C(F)F)cc4OC4COC4)C3)c3c(N)ncnn23)cn1` [Example 435, (R)-N-(1-(4-amino-7-(6-cyanopyridin-3-yl)pyrrolo[2,1-f][1,2,4]triazin-5-yl)piperidin-3-yl)-5-(difluoromethyl)-3-(oxetan-3-yloxy)thiophene-2-carboxamide] was 0.007 µM; that for `CC(=O)N1CC=C(c2cc(N3CCC[C@@H](NC(=O)c4cccc(N[C@@H]5CCN(C)C5)n4)C3)c3c(N)ncnn23)C1` [Example 760, N—((R)-1-(7-(1-acetyl-2,5-dihydro-1H-pyrrol-3-yl)-4-aminopyrrolo[2,1-f][1,2,4]triazin-5-yl)piperidin-3-yl)-6-(((R)-1-methylpyrrolidin-3-yl)amino)picolinamide] was 0.023 µM.
On the same count and under the same terms, the value for `CC(=O)N1CC=C(c2cc(N3CCC[C@@H](NC(=O)c4sc(C5CC5)cc4OC4CCN(C5CC5)CC4)C3)c3c(N)ncnn23)C1` [Example 378, (R)-N-(1-(7-(1-acetyl-2,5-dihydro-1H-pyrrol-3-yl)-4-aminopyrrolo[2,1-f][1,2,4]triazin-5-yl)piperidin-3-yl)-5-cyclopropyl-3-((1-cyclopropylpiperidin-4-yl)oxy)thiophene-2-carboxamide] was 0.043 µM; that for `Nc1ncnn2c(C3=CCN(C(=O)c4ccon4)C3)cc(N3CCC[C@@H](NC(=O)c4ccc(Cl)s4)C3)c12` [Example 882, (R)-N-(1-(4-amino-7-(1-(isoxazole-3-carbonyl)-2,5-dihydro-1H-pyrrol-3-yl)pyrrolo[2,1-f][1,2,4]triazin-5-y1)piperidin-3-y1)-5-chlorothiophene-2-carboxamide] was 0.001 µM.
On the same count and under the same terms, under `Nc1ncnn2c(-c3ccnc(C(F)F)c3)cc(N3CCC[C@@H](NC(=O)c4ccc(C5=CCNCC5)s4)C3)c12` [Example 553, (R)-N-(1-(4-amino-7-(2-(difluoromethyl)pyridin-4-yl)pyrrolo[2,1-f][1,2,4]triazin-5-yl)piperidin-3-yl)-5-(1,2,3,6-tetrahydropyridin-4-yl)thiophene-2-carboxamide] stands 0.016 µM; under `CC(=O)N1CC=C(c2cc(N3CCC[C@@H](NC(=O)c4cccc(C5CC5)n4)C3)c3c(N)ncnn23)C1` [Example 710, (R)-N-(1-(7-(1-acetyl-2,5-dihydro-1H-pyrrol-3-yl)-4-aminopyrrolo[2,1-f][1,2,4]triazin-5-yl)piperidin-3-yl)-6-cyclopropylpicolinamide,], 0.013 µM; under `CC(=O)N1CC=C(c2cc(N3CCC[C@@H](NC(=O)c4ccc(-c5cnc(C#N)nc5)s4)C3)c3c(N)ncnn23)C1` [Example 552, (R)-N-(1-(7-(1-acetyl-2,5-dihydro-1H-pyrrol-3-yl)-4-aminopyrrolo[2,1-f][1,2,4]triazin-5-yl)piperidin-3-yl)-5-(2-cyanopyrimidin-5-yl)thiophene-2-carboxamide], 0.027 µM.
Take `NC(=O)c1ccc(-c2cc(N3CCC[C@@H](NC(=O)c4ccc(C(F)F)s4)C3)c3c(N)ncnn23)cc1F` [Example 497, (R)-N-(1-(4-amino-7-(4-carbamoyl-3-fluorophenyl)pyrrolo[2,1-f][1,2,4]triazin-5-yl)piperidin-3-yl)-5-(difluoromethyl)thiophene-2-carboxamide]: the IC50 was determined as 0.001 µM.
Still for that read-out and setting: under `Nc1ncnn2c(-c3ccc(S(=O)(=O)C4CC4)cc3)cc(N3CCC[C@@H](NC(=O)c4ccc(Cl)s4)C3)c12` [Example 228, N-[(3R)-1-{4-amino-7-[4-(cyclopropanesulfonyl)phenyl]pyrrolo[2,1-f][1,2,4]triazin-5-yl}piperidin-3-yl]-5-chlorothiophene-2-carboxamide, TFA] stands 0.006 µM; under `Cc1cc(-c2cc(N3CCC[C@@H](NC(=O)c4sc(Cl)cc4OCCN(C)C)C3)c3c(N)ncnn23)cn(CC(C)C)c1=O` [Example 694, (R)—N-(1-(4-amino-7-(1-isobutyl-5-methyl-6-oxo-1,6-dihydropyridin-3-yl)pyrrolo[2,1-f][1,2,4]triazin-5-yl)piperidin-3-yl)-5-chloro-3-(2-(dimethylamino)ethoxy)thiophene-2-carboxamide], 0.103 µM; under `CN(C)CCOc1cc(C2CC2)sc1C(=O)N[C@@H]1CCCN(c2cc(-c3ccc(=O)n(CC(F)F)c3)n3ncnc(N)c23)C1` [Example 375, (R)-N-(1-(4-amino-7-(1-(2,2-difluoroethyl)-6-oxo-1,6-dihydropyridin-3-yl)pyrrolo[2,1-f] [1,2,4]triazin-5-yl)piperidin-3-yl)-5-cyclopropyl-3-(2-(dimethylamino)ethoxy)thiophene-2-carboxamide], 0.021 µM.
Still for that read-out and setting: under `NC(=O)c1ccc(-c2cc(N3CCC[C@@H](NC(=O)c4sc(Cl)cc4OCC4CCNCC4)C3)c3c(N)ncnn23)cc1F` [Example 642, (R)-N-(1-(4-amino-7-(4-carbamoyl-3-fluorophenyl)pyrrolo[2,1-f][1,2,4]triazin-5-y1)piperidin-3-y1)-5-chloro-3-(piperidin-4-ylmethoxy)thiophene-2-carboxamide] stands 0.004 µM; under `COc1cc(C(=O)N[C@@H]2CCCN(c3cc(C4=CCN(C(C)=O)C4)n4ncnc(N)c34)C2)ccn1` [Example 716, (R)-N-(1-(7-(1-acetyl-2,5-dihydro-1H-pyrrol-3-yl)-4-aminopyrrolo[2,1-f][1,2,4]triazin-5-yl)piperidin-3-yl)-2-methoxyisonicotinamide], 0.023 µM; under `Nc1ncnn2c(C3=CCC(F)(F)CC3)cc(N3CCC[C@@H](NC(=O)c4ccc(Cl)s4)C3)c12` [Example 239], 0.043 µM.
Still for that read-out and setting: under `CS(=O)(=O)c1ccc(-c2cc(N3CCC[C@@H](NC(=O)c4ccnc(Br)c4)C3)c3c(N)ncnn23)cc1` [Example 86, (R)-N-(1-(4-amino-7-(4-(methylsulfonyl)phenyl)pyrrolo[2,1-f][1,2,4]triazin-5-yl)piperidin-3-yl)-2-bromoisonicotinamide, TFA] stands 0.009 µM; under `CN(C)CCOc1cc(C(F)F)sc1C(=O)N[C@@H]1CCCN(c2cc(-c3ccc(C(N)=O)nc3)n3ncnc(N)c23)C1` [Example 306, (R)-5-(4-amino-5-(3-(5-(difluoromethyl)-3-(2-(dimethylamino)ethoxy)thiophene-2-carboxamido)piperidin-1-yl)pyrrolo[2,1-f] [1,2,4]triazin-7-yl)picolinamide], 0.011 µM.
Turning to `COC(=O)N1CC=C(c2cc(N3CCC[C@@H](NC(=O)c4sc(C(F)F)cc4OC4CCNCC4)C3)c3c(N)ncnn23)C1` [Example 348, methyl (R)-3-(4-amino-5-(3-(5-(difluoromethyl)-3-(piperidin-4-yloxy)thiophene-2-carboxamido)piperidin-1-yl)pyrrolo[2,1-f][1,2,4]triazin-7-yl)-2,5-dihydro-1H-pyrrole-1-carboxylate], the IC50 turned out to be 0.006 µM.
Still for that read-out and setting: the value for `CC(=O)N1CC=C(c2cc(N3CCC[C@@H](NC(=O)c4sc(Cl)cc4OC4CCN(C)CC4F)C3)c3c(N)ncnn23)C1` (stereo partly drawn) [Example 604, N-((R)-1-(7-(1-acetyl-2,5-dihydro-1H-pyrrol-3-y1)-4-aminopyrrolo[2,1-f][1,2,4]triazin-5-yl)piperidin-3-y1)-5-chloro-3-((3-fluoro-1-methylpiperidin-4-yl)oxy)thiophene-2-carboxamide] was 0.005 µM.
Still for that read-out and setting: under `CC(=O)NCCC(=O)N1CC=C(c2cc(N3CCC[C@@H](NC(=O)c4ccc(Cl)s4)C3)c3c(N)ncnn23)C1` [Example 915, (R)—N-(1-(7-(1-(3-acetamidopropanoyl)-2,5-dihydro-1H-pyrrol-3-yl)-4-aminopyrrolo[2,1-f][1,2,4]triazin-5-yl)piperidin-3-yl)-5-chlorothiophene-2-carboxamide] stands 0.01 µM.
Same read-out and setting: under `Cc1nc(OCCN(C)C)c(C(=O)N[C@@H]2CCCN(c3cc(-c4ccc(=O)n(CC(C)C)c4)n4ncnc(N)c34)C2)s1` [Example 355, (R)-N-(1-(4-amino-7-(1-isobutyl-6-oxo-1,6-dihydropyridin-3-yl)pyrrolo[2,1-f][1,2,4]triazin-5-yl)piperidin-3-yl)-4-(2-(dimethylamino)ethoxy)-2-methylthiazole-5-carboxamide] stands 0.047 µM.

Still in this test, the particulars now being: SGK1 IC50, Assay A; 20 μM ATP, 40 min incubation.
Take `CC(=O)N1CC=C(c2cc(N3CCC[C@@H](NC(=O)c4ccc(S(=O)(=O)F)cc4)C3)c3c(N)ncnn23)C1` [Example 870, (R)-4-((1-(7-(1-acetyl-2,5-dihydro-1H-pyrrol-3-yl)-4-aminopyrrolo[2,1-f][1,2,4]triazin-5-yl)piperidin-3-yl)carbamoyl)benzenesulfonyl fluoride]: the IC50 is 0.032 µM.
